Molecular target: T1, N-type calcium channel (Homo sapiens, UniProt Q00975)
T1 construct: endogenous in cells
Experiment: Determination of inhibitory activity on N-type calcium channel (Fura-2 fluorescence, KCl depolarization, with nifedipine)
Type: cell-based
Settings: compound at final concentration of 3 μM; depolarized with 80 mM potassium chloride; in presence of nifedipine; read-out: Inhibitory effect on calcium flow (%)
Experimental: Determination of Inhibitory Activity on N-type Calcium Channel
Cell line was differentiated according to the method described in FEBS Letters, 235, 178-182, 1988. The cell was loaded with fluorescent reagent, Fura-2·AM (at the final concentration of 10 μM), at 37° C. for 30 minutes and suspended in Krebs-buffer containing HEPES (25 mM) to obtain the cell suspension. The obtained cell suspension was incubated in the presence or absence of the compounds of the present invention with nifedipine for 5 minutes. The cell was depolarized by adding potassium chloride solution (at the final concentration of 80 mM) thereto and then a fluorescence intensity at the emission wavelength of 500 nm excited by the UV of 340 nm and 380 nm alternately was measured using the intracellular calcium analyzer (Nippon Bunko Co., CAF-110). The inhibitory activity of the compound of the present invention (at the final concentration of 3 μM) on calcium influx into the cell was calculated from the difference in changing the fluorescence intensity at peak (ΔR) according to the following equation.

T1 sequence (Q00975 whole entry): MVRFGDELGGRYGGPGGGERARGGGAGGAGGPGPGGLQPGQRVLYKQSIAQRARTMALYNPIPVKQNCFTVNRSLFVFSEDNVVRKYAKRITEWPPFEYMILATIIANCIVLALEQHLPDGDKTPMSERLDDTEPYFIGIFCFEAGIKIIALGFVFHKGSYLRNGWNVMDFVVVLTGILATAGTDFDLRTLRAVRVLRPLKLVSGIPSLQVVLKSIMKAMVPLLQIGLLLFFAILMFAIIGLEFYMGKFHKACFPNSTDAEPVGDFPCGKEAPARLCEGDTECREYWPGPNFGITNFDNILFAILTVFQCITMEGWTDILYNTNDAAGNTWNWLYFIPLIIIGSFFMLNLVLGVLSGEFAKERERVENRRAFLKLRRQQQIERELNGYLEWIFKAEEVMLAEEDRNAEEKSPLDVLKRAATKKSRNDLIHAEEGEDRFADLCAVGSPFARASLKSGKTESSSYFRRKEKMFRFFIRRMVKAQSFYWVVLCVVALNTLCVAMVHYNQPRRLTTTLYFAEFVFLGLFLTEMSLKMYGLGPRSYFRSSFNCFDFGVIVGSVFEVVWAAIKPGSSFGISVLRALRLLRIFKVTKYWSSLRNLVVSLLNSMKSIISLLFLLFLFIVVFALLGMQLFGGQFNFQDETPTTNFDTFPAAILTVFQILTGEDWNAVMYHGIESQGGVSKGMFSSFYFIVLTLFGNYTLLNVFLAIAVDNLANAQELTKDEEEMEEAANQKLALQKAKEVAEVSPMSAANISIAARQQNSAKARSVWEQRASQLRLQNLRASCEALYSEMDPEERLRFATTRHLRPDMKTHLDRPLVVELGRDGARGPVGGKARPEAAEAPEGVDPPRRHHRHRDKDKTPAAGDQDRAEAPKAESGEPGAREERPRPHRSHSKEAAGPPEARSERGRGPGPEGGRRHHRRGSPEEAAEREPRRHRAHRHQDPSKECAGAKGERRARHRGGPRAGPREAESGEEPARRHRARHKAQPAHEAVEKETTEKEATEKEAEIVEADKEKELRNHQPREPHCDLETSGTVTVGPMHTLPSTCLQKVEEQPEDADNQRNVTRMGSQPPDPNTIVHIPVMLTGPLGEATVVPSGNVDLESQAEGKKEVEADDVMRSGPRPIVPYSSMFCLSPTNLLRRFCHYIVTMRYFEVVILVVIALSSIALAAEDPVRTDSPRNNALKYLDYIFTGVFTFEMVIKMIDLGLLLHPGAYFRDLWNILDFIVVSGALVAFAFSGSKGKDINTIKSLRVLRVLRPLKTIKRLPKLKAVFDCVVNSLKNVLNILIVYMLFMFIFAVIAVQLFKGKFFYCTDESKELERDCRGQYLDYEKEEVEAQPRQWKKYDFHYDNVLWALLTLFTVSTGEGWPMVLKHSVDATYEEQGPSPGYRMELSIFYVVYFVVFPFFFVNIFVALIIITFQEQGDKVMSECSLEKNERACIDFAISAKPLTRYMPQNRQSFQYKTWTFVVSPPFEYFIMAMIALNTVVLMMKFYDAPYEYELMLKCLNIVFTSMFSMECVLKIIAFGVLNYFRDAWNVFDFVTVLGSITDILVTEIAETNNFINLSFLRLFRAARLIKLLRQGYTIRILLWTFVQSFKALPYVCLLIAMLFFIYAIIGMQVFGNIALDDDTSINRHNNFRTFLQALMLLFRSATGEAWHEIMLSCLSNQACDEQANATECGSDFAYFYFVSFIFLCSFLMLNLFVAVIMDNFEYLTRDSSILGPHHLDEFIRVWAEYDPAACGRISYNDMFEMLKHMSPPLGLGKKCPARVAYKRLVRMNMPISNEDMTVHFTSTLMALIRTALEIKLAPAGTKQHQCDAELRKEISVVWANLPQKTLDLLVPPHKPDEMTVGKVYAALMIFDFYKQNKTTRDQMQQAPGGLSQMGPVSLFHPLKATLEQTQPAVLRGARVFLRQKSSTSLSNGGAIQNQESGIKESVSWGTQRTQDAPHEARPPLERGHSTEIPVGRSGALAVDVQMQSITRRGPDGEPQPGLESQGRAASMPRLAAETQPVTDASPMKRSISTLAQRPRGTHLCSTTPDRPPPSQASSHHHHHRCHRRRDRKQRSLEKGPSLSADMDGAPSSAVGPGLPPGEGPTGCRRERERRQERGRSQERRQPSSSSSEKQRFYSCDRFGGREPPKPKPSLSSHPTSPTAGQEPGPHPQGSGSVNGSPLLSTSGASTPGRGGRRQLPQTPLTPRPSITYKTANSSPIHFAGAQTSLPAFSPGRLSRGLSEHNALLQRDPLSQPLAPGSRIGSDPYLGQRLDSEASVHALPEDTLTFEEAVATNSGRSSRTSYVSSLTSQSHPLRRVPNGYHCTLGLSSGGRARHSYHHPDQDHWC

`CC(C)(C)OC(=O)N1CSC[C@H]1C(=O)N[C@@H](CSCC1CCCCC1)C(=O)NC1CCN(Cc2ccccc2)CC1` [compound 2, (2R)-N-(1-benzylpiperidin-4-yl)-3-cyclohexylmethylthio-2-((4R)-3-t-butoxycarbonylthiazolidin-4-ylcarbonylamino)propanamide] was tested, and the inhibition at 3 µM was 95%.

Reference: patent US7351721B2, “Amino acid derivatives and pharmaceutical composition comprising, as active ingredients, them” (Ono Pharmaceutical Co., Ltd., priority 1999, dated 2008)
